Experiments:
Assay in all cases: Calcein AM cytotoxicity assay
Type in all cases: cell-based
HL60 = conditions: Homo sapiens, HL-60, 72 h, three days
[1] = system: Kasumi-1 (acute myeloid leukemia, KIT mutation Asn822Lys); conditions: Homo sapiens, 72 h; Kasumi-1; Calcein AM, three days; read-out: EC50 values (μM) Kasumi-1
Description: (§1) Cytotoxicity of the compounds is the major property determining their anticancer effect in vivo. One of the parameters used, as the basis for cytotoxicity assays, is the integrity of cytoplasmic membrane of viable cells. For example, a microtiter assay, which uses acetomethoxy derivate of calcein (Calcein AM), is widely used for evaluation of cell proliferation and cytotoxicity. This assay is used in drug screening programs and in chemosensitivity testing. Intracellular esterases of viable cells convert calcein AM to green-fluorescent calcein of which signal corresponds to the number of viable cells in the culture.
(§2) We have been using the following cell lines: MV4-11 (acute myeloid leukemia, FLT3-ITD positive), MOLM-13 (acute myeloid leukemia, FLT3-ITD positive), THP-1 (acute myeloid leukemia, wt FLT3), U937 (monocytic leukemia, wt FLT3), EOL-1 (eosinophilic leukaemia, carrying the fusion FIP1L1-PDGFRA), H1703 (non-small cell lung carcinoma, PDGFRA amplification). They were maintained in RPMI-1640 supplemented with 10% fetal bovine serum, penicillin (100 U/ml) and streptomycin (100 μg/ml). Kasumi-1 (acute myeloid leukemia, KIT mutation Asn822Lys) cells were cultivated in RPMI-1640 supplemented with 15% fetal bovine serum, penicillin (100 U/ml) and streptomycin (100 μg/ml). K562 and MCF-7 cell lines were maintained in DMEM supplemented with 10% fetal bovine serum, penicilin (100 U/ml) and streptomycin (100 μg/ml). All cell lines were cultivated at 37° C. in 5% CO2. For cytotoxicity assays, cells were seeded in appropriate densities into 96 well plates and the next day tested compounds were added at various concentrations in triplicates. Three days after drug addition, Calcein AM solution (final concentration 1 μg/ml; Thermo Scientific, USA) was added into each well and incubated for 1 h. After this incubation period, fluorescence of the live cells was measured at 485 nm/538 nm (ex/em) with a Fluoroskan Ascent microplate reader (Labsystems).

[2] = system: U937 (monocytic leukemia, wt FLT3); conditions: Homo sapiens, U-937, 72 h; U937; Calcein AM, three days; read-out: EC50 values (μM) U937
Description: as §1
as §2, with “They were maintained in RPMI-1640 supplemented with 10% fetal bovine serum, penicillin (100 U/ml) and streptomycin (100 μg/ml). Kasumi-1 (acute myeloid leukemia, KIT mutation Asn822Lys) cells were cultivated in RPMI-1640 supplemented with 15% fetal bovine serum, penicillin (100 U/ml) and streptomycin (100 μg/ml).” left out, “h.” for “h. After this incubation period, fluorescence of the live cells was measured at 485 nm/538 nm (ex/em) with a Fluoroskan Ascent microplate reader (Labsystems).”

MCF-7 = conditions: Homo sapiens, MCF7, 72 h; MCF-7; Calcein AM, three days; read-out: EC50 values (μM) MCF-7
Description: as §1
as §2, with “They were maintained in RPMI-1640 supplemented with 10% fetal bovine serum, penicillin (100 U/ml) and streptomycin (100 μg/ml). Kasumi-1 (acute myeloid leukemia, KIT mutation Asn822Lys) cells were cultivated in RPMI-1640 supplemented with 15% fetal bovine serum, penicillin (100 U/ml) and streptomycin (100 μg/ml).” left out, “h.” for “h. After this incubation period, fluorescence of the live cells was measured at 485 nm/538 nm (ex/em) with a Fluoroskan Ascent microplate reader (Labsystems).”

[3] = system: EOL-1 (eosinophilic leukaemia, carrying the fusion FIP1L1-PDGFRA); conditions: Homo sapiens, EOL1, 72 h; EOL-1; Calcein AM, three days; read-out: EC50 values (μM) EOL-1
Description: as §1
as §2, with “They were maintained in RPMI-1640 supplemented with 10% fetal bovine serum, penicillin (100 U/ml) and streptomycin (100 μg/ml). Kasumi-1 (acute myeloid leukemia, KIT mutation Asn822Lys) cells were cultivated in RPMI-1640 supplemented with 15% fetal bovine serum, penicillin (100 U/ml) and streptomycin (100 μg/ml).” left out, “h.” for “h. After this incubation period, fluorescence of the live cells was measured at 485 nm/538 nm (ex/em) with a Fluoroskan Ascent microplate reader (Labsystems).”

[4] = system: MV4-11 (acute myeloid leukemia, FLT3-ITD positive); conditions: Homo sapiens, 72 h; MV4-11; Calcein AM, three days after drug addition; read-out: EC50 values (μM) MV4-11
Description: as §1
as §2, with “They were maintained in RPMI-1640 supplemented with 10% fetal bovine serum, penicillin (100 U/ml) and streptomycin (100 μg/ml). Kasumi-1 (acute myeloid leukemia, KIT mutation Asn822Lys) cells were cultivated in RPMI-1640 supplemented with 15% fetal bovine serum, penicillin (100 U/ml) and streptomycin (100 μg/ml).” left out, “h.” for “h. After this incubation period, fluorescence of the live cells was measured at 485 nm/538 nm (ex/em) with a Fluoroskan Ascent microplate reader (Labsystems).”

[5] = system: MOLM-13 (acute myeloid leukemia, FLT3-ITD positive); conditions: Homo sapiens, 72 h; MOLM-13; Calcein AM, three days; read-out: EC50 values (μM) MOLM-13
Description: as §1
as §2, with “They were maintained in RPMI-1640 supplemented with 10% fetal bovine serum, penicillin (100 U/ml) and streptomycin (100 μg/ml). Kasumi-1 (acute myeloid leukemia, KIT mutation Asn822Lys) cells were cultivated in RPMI-1640 supplemented with 15% fetal bovine serum, penicillin (100 U/ml) and streptomycin (100 μg/ml).” left out, “h.” for “h. After this incubation period, fluorescence of the live cells was measured at 485 nm/538 nm (ex/em) with a Fluoroskan Ascent microplate reader (Labsystems).”

K562 = conditions: Homo sapiens, 72 h; K562; Calcein AM, three days; read-out: EC50 values (μM) K562
Description: as §1
as §2, with “They were maintained in RPMI-1640 supplemented with 10% fetal bovine serum, penicillin (100 U/ml) and streptomycin (100 μg/ml). Kasumi-1 (acute myeloid leukemia, KIT mutation Asn822Lys) cells were cultivated in RPMI-1640 supplemented with 15% fetal bovine serum, penicillin (100 U/ml) and streptomycin (100 μg/ml).” left out, “h.” for “h. After this incubation period, fluorescence of the live cells was measured at 485 nm/538 nm (ex/em) with a Fluoroskan Ascent microplate reader (Labsystems).”

[6] = system: THP-1 (acute myeloid leukemia, wt FLT3); conditions: Homo sapiens, 72 h; THP-1; Calcein AM, three days; read-out: EC50 values (μM) THP-1
Description: as §1
as §2, with “They were maintained in RPMI-1640 supplemented with 10% fetal bovine serum, penicillin (100 U/ml) and streptomycin (100 μg/ml). Kasumi-1 (acute myeloid leukemia, KIT mutation Asn822Lys) cells were cultivated in RPMI-1640 supplemented with 15% fetal bovine serum, penicillin (100 U/ml) and streptomycin (100 μg/ml).” left out, “h.” for “h. After this incubation period, fluorescence of the live cells was measured at 485 nm/538 nm (ex/em) with a Fluoroskan Ascent microplate reader (Labsystems).”

NC1CCC(Nc2nc(Nc3ccc(CN4CC5(COC5)C4)nc3)c3ncn(C4CCCC4)c3n2)CC1 (stereo not drawn) [Compound 5]
EC50 (HL60): 1.21 µM | EC50 [1]: 0.588 µM | EC50 [2]: 0.44 µM | EC50 (MCF-7): 0.41 µM | EC50 [3]: 0.019 µM | EC50 [4]: 0.011 µM | EC50 [5]: 0.014 µM | EC50 (K562): 0.432 µM | EC50 [6]: 0.903 µM
